Assay type in all cases: in vivo, human
The test system of data set [1] is KRAS mutant and NRAS mutant IgG lambda multiple myeloma. In words: Example 1: oral treatment of a multiple myeloma patient, 3 weeks on/1 week off. The following applies: for FLCk: pre 325 mg/L, 4 mg twice weekly. The protocol: A potassium salt of compound (I) (the potassium salt being also referred to as the “IMP” in this example) was orally administered to a patient with KRAS mutant and NRAS mutant IgG lambda multiple myeloma at a dose of 4 mg twice weekly (Tuesday and Friday) in 4-week cycles consisting of 3 weeks of treatment followed by 1 week of rest (3 weeks on/1 week off). Dexamethasone was not used in combination with the IMP.
The patient started dosing on 29 Nov., 2016. […] initial and ongoing toxicity was intermittent Grade 1 diarrhoea that may be related to the IMP.
The patient had previously been treated with: • Autologous stem cell transplant • Proteasome inhibitor • Immunomodulatory drug • Cyclophosphamide+Dexamethasone+Thalidomide • Melphalan • Lenalidomide • Cyclophosphamide+Bortezomib • Dexamethasone • Spine T3-T12, 5 fractions (radiotherapy)

Data set [2] has as its system HRAS mutant apocrine adenocarcinoma of the scalp. The experiment in a line: Example 3: oral treatment of an apocrine adenocarcinoma patient following the dosing guidance. The following applies: for reduction in tumor size: CT scan. The protocol:
A potassium salt of compound (I) (the potassium salt being also referred to as the “IMP” in this example) was orally administered to a patient with HRAS mutant apocrine adenocarcinoma of the scalp. Apocrine adenocarcinoma of the scalp is a cutaneous sweat gland carcinoma. The patient was diagnosed in 2014, and had radiotherapy and surgery twice before treatment with the IMP.
Treatment of the patient by the IMP was started on 8th Jan., 2018 at a dose of 4 mg twice weekly in 4-week cycles. In Cycle 1 Week 3, the patient had Grade 2 acneiform rash and Grade 2 diarrhoea and thus the dosage was reduced to a 3 weeks on/1 week off schedule with 4 mg twice weekly. The grade of acneiform rash was one (1) in Cycle 2 Day 1, […] in Cycle 2 Day 22, and two (2) in Cycle 3 Day 1. Thus, the dose at Cycle 3 Day 1 was not reduced to 3.2 mg and was determined as 4 mg.
Treatment of the patient by the IMP is ongoing as of 30th Apr., 2018 (Cycle 5 Day 1) without any Grade 2 or higher rash or diarrhoea being observed.

Data set [3] concerns KRAS mutant non-small-cell lung cancer. In words: Example 2: oral treatment of a non-small-cell lung cancer patient with stepwise dose reduction. The following applies: for best response, reduction in target lesions by RECIST 1.1: CT scan. The protocol:
A potassium salt of compound (I) (the potassium salt being also referred to as the “IMP” in this example) was orally administered to a patient with KRAS mutant non-small-cell lung cancer.
The patient started treatment on 1 Sep., 2014. The IMP was first administered at a dose of 4 mg twice weekly in 4-week cycles consisting of 4 weeks of treatment (4 mg 4 wk on). In Cycle 9, due to Grade 3 maculopapular rash, the dosage was reduced to 3.2 mg twice weekly in 4-week cycles (3.2 mg 4 wk on). In Cycle 22, due to Grade 3 facial rash, the dosage was reduced again to a 3 weeks on/1 week off schedule with 3.2 mg twice weekly (3.2 mg 3 wk on/1 wk off).
The horizontal axis (X-axis) represents the treatment cycle number and the vertical axis (Y-axis) represents the rate of change of tumor size from baseline. The tumor size was measured by CT scan. The best responses of the dosing schedules 4 mg 4 wk on, 3.2 mg 4 wk on, and 3.2 mg 3 wk on/1 wk off were 58% reduction, 61% reduction, and 68% reduction in target lesions by RECIST 1.1, respectively. Treatment of the patient by the IMP is being continued as of 18 Apr., 2018 (at Cycle 48, equivalent to 3.6 years) without any Grade 2 or higher rash being observed.
The patient had previously been treated with: • Carboplatin/Pemetrexed • Pemetrexed • Docetaxel • Pleurodesis (October 2012) (surgery)

For data set [4], the system named is solid cancers. In words: Earlier dosing regimen (twice weekly, 4 mg per administration) in patients. The following applies: some cases. The protocol:
In regard to the usage and dosage of compound (I) or a salt thereof, a potassium salt of compound (I) is known to be administered to patients with solid cancers such as non-small-cell lung cancer, ovarian cancer, endometrial cancer, and colorectal cancer twice weekly at a dose of 4 mg per administration (see non patent document 1).

[5] abbreviates: 4 mg twice weekly in 4-week cycles, Cycle 1 Week 3.

`CNS(=O)(=O)[N-]c1nccc(Cc2c(C)c3ccc(Oc4ncccn4)cc3oc2=O)c1F.[K+]` [IMP]: the “rash related to the IMP (grade)” value in data set [1] (4 mg twice weekly oral, no dexamethasone) stood at 2 Grade. For the same molecule, the “diarrhoea (toxicity grade)” value in data set [1] (4 mg twice weekly oral, no dexamethasone, initial and ongoing, intermittent, may be related to the IMP) is 1 Grade. Moreover, the “response as per IMWG criteria” value in data set [1] (4 mg twice weekly oral, ongoing) is reported as “partial response”. Besides, the FLCk in data set [1] (after 1 cycle) amounted to 161 mg/L; in data set [1] (after 2 cycles), 264 mg/L. For the same molecule, the “acneiform rash (grade)” value amounted to 2 Grade in data set [2] (setting [5]); 1 Grade in data set [2] (4 mg twice weekly, 3 weeks on/1 week off, Cycle 2 Day 1); 3 Grade in data set [2] (4 mg twice weekly, 3 weeks on/1 week off, Cycle 2 Day 22); 2 Grade in data set [2] (4 mg twice weekly, 3 weeks on/1 week off, Cycle 3 Day 1). Further, the “diarrhoea (grade)” value in data set [2] (setting [5]) is reported as 2 Grade. In addition, the “response by RECIST 1.1 (tumor size by CT scan)” value in data set [2] (4 mg twice weekly, 3 weeks on/1 week off) is given as “partial response”. Further, the results for the “reduction in tumor size” value in data set [2] (Cycle 2 Day 22) and in data set [2] (Cycle 4 Day 15) were 54% and 58%, respectively. For the same molecule, in data set [2] (as of Cycle 5 Day 1), the “diarrhoea observed (grade) during ongoing treatment” value was less than 2 Grade. In data set [2] (as of Cycle 5 Day 1), the “rash observed (grade) during ongoing treatment” value is less than 2 Grade. Besides, in data set [3] (3.2 mg twice weekly, 3 wk on/1 wk off), the “rash (grade) after the reductions” value amounted to 1 Grade. In data set [3] (3.2 mg twice weekly, 4 wk on, Cycle 22), the “facial rash (grade)” value was 3 Grade. Besides, in data set [3] (4 mg twice weekly, 4 wk on, Cycle 9), the “maculopapular rash (grade)” value is 3 Grade. Besides, the “rash observed (grade) during continued treatment” value in data set [3] (as of Cycle 48 (3.6 years)) is reported as less than 2 Grade. In addition, in data set [3] (maintained at Cycle 40, 3.2 mg 3 wk on/1 wk off), the “response by RECIST 1.1” value is given as “partial response”. Further, the “best response, reduction in target lesions by RECIST 1.1” value in data set [3] (schedule 3.2 mg 3 wk on/1 wk off) was 68%; in data set [3] (schedule 3.2 mg 4 wk on), 61%; in data set [3] (schedule 4 mg 4 wk on) it was 58%.
As to `CNS(=O)(=O)Nc1nccc(Cc2c(C)c3ccc(Oc4ncccn4)cc3oc2=O)c1F` [compound (I)], in data set [4], the “adverse event leading to unplanned dose interruption and/or dose reduction” value is reported as “worsening of skin rash”.

The values above are taken from patent US12390465B2, “Coumarin derivative for therapy or prophylaxis of a cell proliferative disorder” (The Institute of Cancer Research: Royal Cancer Hospital, priority 2017, dated 2025).
